{
  "source": "paper PMC3893112",
  "about": "(Journal of medicinal chemistry, 2013)",
  "key": {"[1]": {"target": "T1, human κ opioid receptor over-expressed in CHO cells (Homo sapiens, UniProt P41145)", "T1 sequence (P41145 whole entry)": "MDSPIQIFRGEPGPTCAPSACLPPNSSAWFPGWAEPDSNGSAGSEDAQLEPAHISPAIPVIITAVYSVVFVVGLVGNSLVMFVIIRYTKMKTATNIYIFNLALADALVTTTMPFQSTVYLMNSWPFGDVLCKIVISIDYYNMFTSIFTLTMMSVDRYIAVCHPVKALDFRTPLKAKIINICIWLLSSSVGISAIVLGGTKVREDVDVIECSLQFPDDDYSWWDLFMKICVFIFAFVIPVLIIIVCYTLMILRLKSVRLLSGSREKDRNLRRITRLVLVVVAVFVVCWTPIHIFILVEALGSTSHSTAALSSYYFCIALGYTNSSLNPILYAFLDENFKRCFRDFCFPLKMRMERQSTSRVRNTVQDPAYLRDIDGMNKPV", "test": "[35S]GTPγS binding assay, agonist mode, κ", "type": "biochemical"}, "[2]": {"target": "T1, human κ opioid receptor over-expressed in CHO cells", "test": "Inhibition of κ agonist-stimulated [35S]GTPγS binding", "type": "biochemical", "conditions": "for Antagonist κ, U50,488 Ke: vs κ agonist-stimulated [35S]GTPγS binding"}, "[3]": {"target": "human MOR (Homo sapiens, UniProt P35372)", "sequence (P35372 whole entry)": "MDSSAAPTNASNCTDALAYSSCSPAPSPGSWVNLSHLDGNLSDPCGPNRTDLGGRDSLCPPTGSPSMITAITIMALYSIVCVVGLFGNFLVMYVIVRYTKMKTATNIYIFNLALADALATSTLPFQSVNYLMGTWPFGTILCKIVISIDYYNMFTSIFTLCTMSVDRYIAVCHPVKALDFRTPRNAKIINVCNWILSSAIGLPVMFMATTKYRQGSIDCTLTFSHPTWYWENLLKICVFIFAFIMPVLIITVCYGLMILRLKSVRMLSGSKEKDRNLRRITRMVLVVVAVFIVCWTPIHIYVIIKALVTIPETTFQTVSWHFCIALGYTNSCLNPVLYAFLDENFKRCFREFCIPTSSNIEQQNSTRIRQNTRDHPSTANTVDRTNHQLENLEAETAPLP", "test": "Competition radioligand binding, [3H]DAMGO", "conditions": "Ki vs Kd of DAMGO"}, "[4]": {"target": "human μ opioid receptor over-expressed in CHO cells (Homo sapiens, UniProt P35372)", "sequence (P35372 whole entry)": "as above", "test": "[35S]GTPγS binding assay, agonist mode, μ", "type": "biochemical"}, "[5]": {"target": "T2, human δ opioid receptor over-expressed in CHO cells (Homo sapiens, UniProt P41143)", "T2 sequence (P41143 whole entry)": "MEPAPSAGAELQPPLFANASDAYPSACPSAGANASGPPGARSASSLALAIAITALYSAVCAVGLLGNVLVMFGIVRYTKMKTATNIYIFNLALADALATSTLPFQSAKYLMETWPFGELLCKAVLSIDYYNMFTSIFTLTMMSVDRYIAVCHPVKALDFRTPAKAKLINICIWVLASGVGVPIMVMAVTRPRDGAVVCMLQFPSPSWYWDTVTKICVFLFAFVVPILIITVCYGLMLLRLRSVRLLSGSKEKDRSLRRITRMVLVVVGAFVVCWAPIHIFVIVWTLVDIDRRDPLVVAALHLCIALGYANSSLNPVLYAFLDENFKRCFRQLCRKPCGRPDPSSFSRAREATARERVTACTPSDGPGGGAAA", "test": "[35S]GTPγS binding assay, agonist mode, δ", "type": "biochemical", "conditions": "for Agonist activity at the δ receptor (in words): [35S]GTPγS"}, "[6]": {"target": "T2, human δ opioid receptor over-expressed in CHO cells", "test": "Inhibition of DPDPE-stimulated [35S]GTPγS binding", "type": "biochemical", "conditions": "for Antagonist δ, DPDPE Ke: vs DPDPE-stimulated [35S]GTPγS binding"}},
  "data": [
    {"smiles": "C[C@@H]1CN(CCCc2ccccc2)[C@H]2C[C@H](N(C)C)C[C@]1(c1cccc(O)c1)C2.Cl.Cl", "note": "[Compound 5f, 7-Dimethylamino-5-(3-hydroxyphenyl)-4-methyl-2-(3-phenylprop-1-yl)-2-azabicyclo[3.3.1]nononane]", "values": [
      {"measurement": "EC50", "setting": "[1]", "result": "> 5000", "unit": "nM"},
      {"measurement": "Kb", "setting": "[2]", "result": "176 ± 50", "unit": "nM"},
      {"measurement": "Antagonist κ, U50,488 Ke", "setting": "[2]", "result": 176, "unit": "nM"},
      {"measurement": "Affinity for MOR compared with DAMGO", "setting": "[3]", "result": "higher affinity for MOR than DAMGO"}
    ]},
    {"smiles": "C[C@@H]1CN(CCCc2ccccc2)[C@H]2C[C@H](N(C)CC3CC3)C[C@]1(c1cccc(O)c1)C2.Cl.Cl", "note": "[Compound 5h, 7-(N-Cyclopropylmethylmethylamino)-5-(3-hydroxyphenyl)-4-methyl-2-(3-phenylprop-1-yl)-2-azabicyclo[3.3.1]nononane]", "values": [
      {"measurement": "Affinity for MOR compared with DAMGO", "setting": "[3]", "result": "higher affinity for MOR than DAMGO"}
    ]},
    {"smiles": "C[C@@H]1CN(CCCc2ccccc2)[C@@H]2CCC[C@]1(c1cccc(O)c1)C2.Cl", "note": "[Compound 4, 3-[(1R,4S,5S)-4-Methyl-2-(3-phenylpropyl)-2-azabicyclo[3.3.1]non-5-yl]phenol]", "values": [
      {"measurement": "EC50", "setting": "[4]", "result": "> 5000", "unit": "nM"},
      {"measurement": "EC50", "setting": "[5]", "result": "> 5000", "unit": "nM"},
      {"measurement": "EC50", "setting": "[1]", "result": "> 5000", "unit": "nM"}
    ]},
    {"smiles": "CCCN[C@H]1C[C@H]2C[C@@](c3cccc(O)c3)(C1)[C@H](C)CN2CCCc1ccccc1.Cl.Cl", "note": "[Compound 5d, 5-(3-Hydroxyphenyl)-4-methyl-2-(3-phenylprop-1-yl)-7-propylamino-2-azabicyclo[3.3.1]nononane]", "values": [
      {"measurement": "EC50", "setting": "[5]", "result": "> 5000", "unit": "nM"},
      {"measurement": "Agonist activity at the δ receptor (in words)", "setting": "[5]", "result": "no agonist activity"},
      {"measurement": "Kb", "setting": "[6]", "result": "69.4 ± 16", "unit": "nM"},
      {"measurement": "Antagonist δ, DPDPE Ke", "setting": "[6]", "result": 69.4, "unit": "nM"}
    ]},
    {"smiles": "CCN(C)[C@H]1C[C@H]2C[C@@](c3cccc(O)c3)(C1)[C@H](C)CN2CCCc1ccccc1", "note": "[Compound 5g, 7-(N-Ethylmethylamino)-5-(3-hydroxyphenyl)-4-methyl-2-(3-phenylprop-1-yl)-2 azabicyclo[3.3.1]nononane]", "values": [
      {"measurement": "EC50", "setting": "[5]", "result": "> 5000", "unit": "nM"},
      {"measurement": "EC50", "setting": "[1]", "result": "> 5000", "unit": "nM"},
      {"measurement": "Kb", "setting": "[6]", "result": "> 5000", "unit": "nM"},
      {"measurement": "Kb", "setting": "[2]", "result": "93 ± 29", "unit": "nM"}
    ]},
    {"smiles": "CCN[C@H]1C[C@H]2C[C@@](c3cccc(O)c3)(C1)[C@H](C)CN2CCCc1ccccc1.Cl.Cl", "note": "[Compound 5c, 7-Ethylamino-5-(3-hydroxyphenyl)-4-methyl-2-(3-phenlylprop-1-yl)-2-azabicyclo[3.3.1]nononane]", "values": [
      {"measurement": "EC50", "setting": "[5]", "result": "> 5000", "unit": "nM"},
      {"measurement": "Agonist activity at the δ receptor (in words)", "setting": "[5]", "result": "complete loss of agonist activity"},
      {"measurement": "EC50", "setting": "[1]", "result": "> 5000", "unit": "nM"},
      {"measurement": "Kb", "setting": "[6]", "result": "230 ± 93", "unit": "nM"},
      {"measurement": "Antagonist δ, DPDPE Ke", "setting": "[6]", "result": 230, "unit": "nM"},
      {"measurement": "Kb", "setting": "[2]", "result": "60.8 ± 19", "unit": "nM"},
      {"measurement": "Antagonist κ, U50,488 Ke", "setting": "[2]", "result": 60.8, "unit": "nM"}
    ]},
    {"smiles": "C[C@@H]1CN(CCCc2ccccc2)[C@H]2C[C@H](N)C[C@]1(c1cccc(O)c1)C2.Cl.Cl", "note": "[Compound 5a, (−)-5-(3-hydroxyphenyl)-4-methyl-2-(3-phenylpropyl)-2-azabicyclo[3.3.1]nonan-7-amine]", "values": [
      {"measurement": "EC50", "setting": "[1]", "result": "> 5000", "unit": "nM"},
      {"measurement": "Kb", "setting": "[2]", "result": "10.1 ± 3", "unit": "nM"},
      {"measurement": "Antagonist κ, U50,488 Ke", "setting": "[2]", "result": 10.1, "unit": "nM"}
    ]},
    {"smiles": "C[C@H]1CN(CCCc2ccccc2)[C@@H]2C[C@@H](N)C[C@@]1(c1cccc(O)c1)C2", "note": "[Compound 6, (1S,4R,5R,7S)-7-aminomorphan]", "values": [
      {"measurement": "IC50", "setting": "[4]", "result": 20.6, "unit": "nM"},
      {"measurement": "EC50", "setting": "[5]", "result": "> 5000", "unit": "nM"},
      {"measurement": "EC50", "setting": "[1]", "result": "> 5000", "unit": "nM"},
      {"measurement": "Kb", "setting": "[6]", "result": "25.2 ± 8", "unit": "nM"},
      {"measurement": "Antagonist δ, DPDPE Ke", "setting": "[6]", "result": 25.2, "unit": "nM"},
      {"measurement": "Kb", "setting": "[2]", "result": "21.7 ± 7", "unit": "nM"},
      {"measurement": "Antagonist κ, U50,488 Ke", "setting": "[2]", "result": 21.7, "unit": "nM"}
    ]},
    {"smiles": "CN[C@H]1C[C@H]2C[C@@](c3cccc(O)c3)(C1)[C@H](C)CN2CCCc1ccccc1.Cl.Cl", "note": "[Compound 5b, 5-(3-Hydroxyphenyl)-4-methyl-7-methylamino-2-(3-phenylprop-1-yl)-2-azabicyclo[3.3.1]nononane]", "values": [
      {"measurement": "EC50", "setting": "[1]", "result": "> 5000", "unit": "nM"},
      {"measurement": "Kb", "setting": "[2]", "result": "43.8 ± 8", "unit": "nM"},
      {"measurement": "Antagonist κ, U50,488 Ke", "setting": "[2]", "result": 43.8, "unit": "nM"},
      {"measurement": "Affinity for MOR compared with DAMGO", "setting": "[3]", "result": "higher affinity for MOR than DAMGO"}
    ]},
    {"smiles": "C[C@@H]1CN(CCCc2ccccc2)[C@H]2C[C@H](NCC3CC3)C[C@]1(c1cccc(O)c1)C2.Cl.Cl", "note": "[Compound 5e, 7-(N-Cyclopropylmethylamino)-5-(3-hydroxyphenyl)-4-methyl-2-(3-phenylprop-1-yl)-2-azabicyclo[3.3.1]nononane]", "values": [
      {"measurement": "EC50", "setting": "[5]", "result": "> 5000", "unit": "nM"},
      {"measurement": "EC50", "setting": "[1]", "result": "> 5000", "unit": "nM"}
    ]}
  ]
}
